Measurements from patent US20220031668A1, “METHODS OF INHIBITING PROCOLLAGEN-LYSINE, 2-OXOGLUTARATE 5-DIOXYGENASE 2” (University of Kentucky Research Foundation, priority 2020, published 2022).

Tested on: MDA-MB-231 cells
Assay: 3D culture assay of cancer cell invasion
Format: cell-based, human
Conditions: for inhibitory activity on breast cancer progression (invasive growth) in 3D culture: 20 μM, 3D culture for 3 days
Protocol: 3D culture assay is an established platform to study cancer cell invasion, and the ability of compounds to attenuate such cell invasion (Zhang 2015). […] The MDA-MB-231 cell line is an epithelial, human breast cancer cell line.
Briefly, to conduct the 3D culture assay, 12-well plates were coated with […], matrigel per well. After incubating the plates at 37° C. for 15 minutes, MDA-MB-231 cells were plated with about 300 cells per well. The plates were allowed to stand for 45 min in the 37° C. incubator to let the cells deposit into the matrigel. The cells were then covered with 10% matrigel, which contained test compounds. […]

Structure (SMILES) | inhibitory activity on breast cancer progression (invasive growth) in 3D culture | invasive growth of MDA-MB-231 cells in 3D culture (10 μM)
C[N+](C)(C)CC(O)CC(=O)O (racemic) [DL-Carnitine] | inhibitory activity | 
N=C(N)NC(=O)c1nc(Cl)c(N)nc1N [Amiloride] | inhibitory activity | 
O=C(O)c1cc(O)c(O)c(O)c1 [Gallic acid] | inhibitory activity | 
C[N+](C)(C)C[C@H](O)CC(=O)[O-] [L-Carnitine] | inhibitory activity | 
CN(C)C(=O)C(CCN1CCC(O)(c2ccc(Cl)cc2)CC1)(c1ccccc1)c1ccccc1 [Loperamide] |  | inhibits invasive growth
CN1CCCC(n2nc(Cc3ccc(Cl)cc3)c3ccccc3c2=O)CC1 (stereo not drawn) [Azelastine] | inhibitory activity | 
